Where “and” joins values, the source holds several entries; their conditions need not be identical. Equal values may be shown once. Read-outs that look alike come from different tables or passages of the source.
Legend:
Assay type in all cases: cell-based, human
[1] = test system: normal lymphocytes of AML bone marrow samples; assay: Ex vivo flow cytometry (ExviTech) assay in AML donor bone marrow samples
Experimental: (§1) Patient Samples: The study included bone marrow (BM) samples from adult patients over 18 years of age who were diagnosed with AML. Samples were analyzed in two different batches with the first batch containing 10 patients (donors assigned identification codes containing CG1) and the second comprising the remaining 20 donors (assigned identification codes containing CG3). Corresponding clinical data was not available for the second batch of 20 patient samples at the time of writing.
(§2) Experimental Study Design: To evaluate and characterize the ex vivo pharmacology of Compound 1 in malignant cells and normal lymphocytes of bone marrow samples from thirty donors with acute myeloid leukemia using a flow cytometry-based platform (ExviTech) (Bennett, et al Clin Lymphoma Myeloma Leuk 2014 August; 14(4):305-318).
(§3) On Day 1, the donor sample was received. A small part was separated for validation, and the majority was diluted with culture medium (Roswell Park Memorial Institute (RPMI) 1640) and plated into 96-well plates previously prepared with a range of Compound 1 concentrations. The number of live leukemic cells seeded in each well was fixed between 8000 and 32,000, depending on the percentage of leukemic cells for each sample. The plates were incubated for 24, 48, or 96 hours. Antibodies anti-D34, anti-CD117, anti-HLA-DR, anti-CD45, anti-CD14, anti-CD64, anti-CD13, anti-CD11b) or Annexin V were added to identify leukemic cells using a gating strategy based on forward scatter (FSC) or side scatter (SSC) and expression or lack of expression of different surface markers. The monoclonal antibody selection was performed to optimize the identification of leukemic cells in each sample. The aim of this analysis was not the phenotypic characterization but only the identification of these cells. Accordingly, the markers that Euroflow (van Dongen et al, Leukemia 2012 September; 26(9):1908-1975) has designated as the “backbone markers” for AML (CD34, CD45, CD117) and human leukocyte antigen-DR (HLA-DR) were included in the combination. They allowed the identification of the leukemic cells in almost 90% of AML patients. Additional panels, CD34/CD14/CD64/CD45 and CD34/CD11b/CD13/CD45, were also used to complete the identification of the myeloid leukemic population. This allowed for the selection of the two best antibodies for unequivocal identification of the pathological cell population in each particular sample.
(§4) Live leukemic cells were identified by their light scattering properties classified as high, intermediate, or low (eg, FSC^int/hi/SSC^int) in the absence of Annexin V fluorescein isothiocyanate (FITC) staining. Forward scatter/side scatter selection was performed to exclude debris. The average percentage of cell viability on receipt of the sample was greater than 50% (samples were only processed if the viability was greater than 50%). In some AML donor samples, sufficient normal, non-tumoral lymphocyte cells could be counted, and the effect of Compound 1 was measured in this cell population. Non-tumoral lymphocytes were identified by bright expression of CD45, FSC^low/SSC^low and absence of myeloid markers (CD117, CD11b, and CD13).
(§5) Detailed descriptions of methods used have been published previously (Bennett, et al Clin Lymphoma Myeloma Leuk 2014 August; 14(4):305-318). Briefly, BM samples were extracted under sterile conditions in hospitals of origin and were received within 24 hours of extraction. Initial analysis evaluated the number of pathological cells and their viability. Different volumes of sample (1 μL, 3 μL, 5 μL, and 7 μL) were transferred in duplicate into a 96-well plate. To lyse red blood cells, 180 μL of ammonium chloride lysis solution (2 g KHCO3, 16.58 g NH4Cl, 0.074 g disodium ethylenediaminetetraacetic acid ⋅2H2O, and H2O adjusted to […]) was added to each well. Following a 10-minute incubation period at 4° C., each plate was centrifuged for 5 minutes at 1200 rpm, and the supernatant removed. […]

[2] = test system: leukemic cells of AML bone marrow samples; assay: as above; conditions: for Emax: 100% minus YMin; for depletion of leukemic cells, on average: sensitive patient samples
Experimental: as §1, §2, §3, §4, §5

MOLM-13 = assay: CellTiter-Glo (CTG) cell proliferation assay, 72 hours
Experimental: Preparation of Solutions of Test Article: Compounds were plated into black 384-well plates (Corning Inc.) to a final DMSO volume of 0.1% assuming a maximal volume of 50 μL. A 10-point dose response starting at 10 μM with a 1:3 dilution was printed in duplicate by acoustic dispense using the EDC ATS-100 platform.
Cell Proliferation Assays: The effect of Compound 1 on the proliferation/viability of the hematological cell lines (Table 1 Table, Table 2 and Table 3), THLE-2, or PBMCs was assessed after 72 hours incubation using CTG (Promega), according to manufacturer's instructions. Hematological cell lines were dispensed into compound plates by a Multidrop™ Combi Reagent Dispenser (Thermo Scientific, Waltham, Mass.) at a concentration of 0.1 to 0.3×10^6 cells per mL in a 50 μL total volume. THLE-2 cells were seeded out at 1000 cells per well in 50 μL volume and incubated for 72 hours. At 72 hours, 25 μL per well of CTG was dispensed by a Multidrop™ Combi Reagent Dispenser and adenosine triphosphate (ATP) release by viable cells was measured as relative luminescence units after 30 minutes using the Envision platform.
Proliferation was assessed using the CellTitre-Glo® assay. Results for cultures incubated with Compound 1 were normalized to results for control cultures for each cell line. The IC50 for inhibition of cell growth by Compound 1 was determined for each cell line using ActivityBase software.
Cultures of 11 different AML cell lines were incubated 72 hours with Compound 1 at concentrations of 0.5 nM to 10 μM. Proliferation was assessed using the CellTitre-Glo® assay. Results for cultures incubated with Compound 1 were normalized to results for control cultures for each cell line. Inhibition of cell growth was also determined in THLE-2 cells at Compound 1 concentrations of 0.1 nM to 100 μM and in PBMCs at Compound 1 concentrations of 0.5 nM to […]. The Compound 1 therapeutic window was calculated using area under the curve (AUC; Activity Area [Barretina et al, Nature (2012) 483603-607] measurements (in arbitrary units) as determined using GraphPad Prism software for plots of cell proliferation vs concentration and dividing the AUC for the immortalized (but nontumorigenic) human THLE-2 hepatocyte cell line or PBMCs by the AUC for the AML cell line.

[3] = MOLM-13, AUC PBMCs divided by AUC AML cell line
[4] = MOLM-13, AUC THLE-2 divided by AUC AML cell line

O=C1CCC(N2Cc3cc(CNC(=O)C(F)(F)c4ccc(Cl)cc4)ccc3C2=O)C(=O)N1 (stereo not drawn) [Compound 1, 2-(4-chlorophenyl)-N-((2-(2,6-dioxopiperidin-3-yl)-1-oxoisoindolin-5-yl)methyl)-2,2-difluoroacetamide]
Emax ([1]; Homo sapiens, Lymphocyte, normal lymphocytes in patient samples where sufficient could be counted, from 24 to 96 hours, read-out: Emax, averaged): 46 to 76%
Emax ([1]; Lymphoid (LIVE) cells, 48 hours incubation, per AML donor sample, 100% minus YMin): 69.4%
EC50 ([1]; Lymphoid (LIVE) cells, 48 hours incubation, per AML donor sample, unit inferred): 43 nM
patient samples sensitive to Compound 1 ([2]; 30 fresh AML bone marrow samples): 26 out of 30
Emax ([2]; Homo sapiens, 96 h, Leukemic (LIVE) cells, 96 hours incubation, per AML donor sample, read-out: Emax): 98%
EC50 ([2]; Homo sapiens, 96 h, sensitive AML patient samples (26 out of 30), across all three time points (24, 48, 96 hours), read-out: EC50 (range)): 2 to 160 nM
EC50 ([2]; Homo sapiens, 96 h, sensitive AML patient samples (26 out of 30), across all three time points (24, 48, 96 hours), read-out: mean EC50): 21 nM
Emax ([2]; Leukemic (LIVE) cells, 24 hours incubation, per AML donor sample): 64.3% and 83.1%
EC50 ([2]; Leukemic (LIVE) cells, 24 hours incubation, per AML donor sample, unit not printed in table (2 to 160 nM), read-out: EC50): 13 nM
Emax ([2]; Leukemic (LIVE) cells, 48 hours incubation, per AML donor sample): 99.8%
Emax ([2]; Leukemic (LIVE) cells, 96 hours incubation, per AML donor sample): 100.0% and 99.9% and 99.6%
EC50 ([2]; Leukemic (LIVE) cells, 96 hours incubation, per AML donor sample, unit not printed in table (2 to 160 nM), read-out: EC50): 5 nM
depletion of leukemic blasts ([2]; four patient samples categorized as insensitive, at 24 and 48 hours): ≤ 68%
depletion of leukemic cells, on average ([2]; by 48 hours): > 92%
depletion of leukemic cells, on average ([2]; by 96 hours): > 98%
IC50 (MOLM-13; Homo sapiens, MOLM-13, 72 h, read-out: Proliferation IC50 (mean ± SD)): 75 ± 33 nM
Therapeutic Window Method 1 As Compared with PBMCs (MOLM-13; [3]): 6.3
Therapeutic Window Method 2 As Compared with PBMCs (MOLM-13; [3]): 3.7
Therapeutic Window Method 1 As Compared with THLE-2 Cells (MOLM-13; [4]): 9.9
Therapeutic Window Method 2 As Compared with THLE-2 Cells (MOLM-13; [4]): 13.9
AUC (MOLM-13; MOLM-13, Activity Area of proliferation vs concentration, 72 hours, 0.5 nM to 10 μM): 39.6 arbitrary units
